The text below walks through data of patent US20240252488A1 (KOREA RESEARCH INSTITUTE OF CHEMICAL TECHNOLOGY, priority 2020, published 2024).

A word on the Kd: it is the concentration at which binding is half-saturated.

Experiment [1] deals with T1, MLKL (Homo sapiens, UniProt Q8NB16).
T1 sequence (Q8NB16 1-471): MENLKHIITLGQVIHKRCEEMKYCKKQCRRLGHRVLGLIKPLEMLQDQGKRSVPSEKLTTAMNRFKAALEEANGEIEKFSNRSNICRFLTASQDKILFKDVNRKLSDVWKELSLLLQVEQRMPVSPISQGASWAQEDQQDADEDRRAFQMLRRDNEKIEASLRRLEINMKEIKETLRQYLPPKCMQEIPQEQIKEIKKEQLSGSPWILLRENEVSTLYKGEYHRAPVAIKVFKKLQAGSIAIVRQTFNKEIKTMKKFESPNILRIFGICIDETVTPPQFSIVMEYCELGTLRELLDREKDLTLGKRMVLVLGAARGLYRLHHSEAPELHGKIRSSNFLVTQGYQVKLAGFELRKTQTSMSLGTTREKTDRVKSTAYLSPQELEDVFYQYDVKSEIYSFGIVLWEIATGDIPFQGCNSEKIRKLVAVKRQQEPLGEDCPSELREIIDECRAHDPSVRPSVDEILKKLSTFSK
Nature of the experiment: Measurement of binding affinity with MLKL receptor (competitive binding assay, Kd). On the set-up: made in house; host or cells: HEK 293 cell line (T7 phage in E. coli BL21-derived host is also described). An outline of the steps: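 qPCR of MLKL eluted from liganded beads served as the read-out, from which Kd was derived. The protein was made in HEK 293 cells with a DNA tag, and test compounds competed with the bead-bound ligand at 0.9% final DMSO.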

Experiment [2] concerns the target T1, MLKL. Nature of the experiment: MLKL degradation assay in HepG2 cell line (western blot). It is filed as cell-based. On the set-up: endogenous in cells; host or cells: HepG2 or HaCaT. Particulars: cell line not given; for Degradation assay (Degradation %) 1 μM: compound 1 μM; for Degradation assay (Degradation %) 10 μM: compound 10 μM. In short, it runs like this: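 HepG2 cells were treated 20-24 h at 37 °C with compound at 1 or 10 μM final. RIPA lysates were normalized by BCA, and 10-15 μg protein per lane was resolved by SDS-PAGE. MLKL was detected by western blot with chemiluminescence.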

The test system of another experiment is FADD−/− Jurkat cells. Kind of experiment: Necroptosis inhibition assay, TNF-α-induced necroptosis (CellTiter-Glo 2.0). Particulars: TNF-α 15 ng/mL; for Necroptosis inhibition assay (Rescue %) 1 μM: compound 1 μM; for Necroptosis inhibition assay (Rescue %) 10 μM: compound 10 μM. It is filed as cell-based, human. An outline of the steps:
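FADD−/− Jurkat cells preincubated 30 min at room temperature with compound at 0.1, 1 and 10 μM final, then stimulated with TNF-α (15 ng/mL final) for 20–24 h at 37 °C, 5% CO2. Viability read as ATP luminescence; cytotoxicity and necroptosis inhibition rate calculated from luminescence values.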
On the technique in general: Cellular ATP, detected with luciferase, serves as a proxy for viable cell number.

With `Nc1ncc(-c2cnn(C3CCN(C(=O)C4CCN(C(=O)CC5CCN(c6cccc7c6C(=O)N(C6CCC(=O)NC6=O)C7=O)CC5)CC4)CC3)c2)nc1C(=O)O[C@@H](C(=O)Nc1ccc(F)cc1)c1ccccc1` (stereo partly drawn) [TDH-374, (R)-2-((4-fluorophenyl)amino)-2-oxo-1-phenylethyl 3-amino-6-(1-(1-(1-(2-(1-(2-(2,6-dioxopiperidin-3-yl)-1,3-dioxoisoindolin-4-yl)piperidin-4-yl)acetyl)piperidine-4-carbonyl)piperidin-4-yl)-1H-pyrazol-4-yl)pyrazine-2-carboxylate], the affinity at MLKL [1], expressed as Kd, was 2.7 nM. Further, on MLKL [2], the “Degradation assay (Degradation %) 1 μM” value was determined as 93.73% and the “Degradation assay (Degradation %) 10 μM” value was determined as 91.38%. Besides, in the experiment on FADD−/− Jurkat cells, the “Necroptosis inhibition assay (Rescue %) 1 μM” value is given as 39.14% and the “Necroptosis inhibition assay (Rescue %) 10 μM” value is 32.53%.

`Nc1ncc(-c2cnn(C3CCN(C(=O)C4CCN(C(=O)CCc5ccc6c(c5)C(=O)N(C5CCC(=O)NC5=O)C6=O)CC4)CC3)c2)nc1C(=O)O[C@@H](C(=O)Nc1ccc(F)cc1)c1ccccc1` (stereo partly drawn) [TDH-381, (R)-2-((4-fluorophenyl)amino)-2-oxo-1-phenylethyl 3-amino-6-(1-(1-(1-(3-(2-(2,6-dioxopiperidin-3-yl)-1,3-dioxoisoindolin-5-yl)propanoyl)piperidine-4-carbonyl)piperidin-4-yl)-1H-pyrazol-4-yl)pyrazine-2-carboxylate] gave a dissociation constant Kd on MLKL [1] of 1.5 nM. Also, at MLKL [2], the “Degradation assay (Degradation %) 1 μM” value amounted to 78.38% and the “Degradation assay (Degradation %) 10 μM” value was determined as 77.07%. In the experiment on FADD−/− Jurkat cells, the “Necroptosis inhibition assay (Rescue %) 1 μM” value is given as 32.48% and the “Necroptosis inhibition assay (Rescue %) 10 μM” value was found to be 28.99%.

Take `Nc1ncc(-c2cnn([C@@H]3CCN(CC4CCN(C(=O)COc5cccc6c5C(=O)N(C5CCC(=O)NC5=O)C6=O)CC4)C3)c2)nc1C(=O)OC(C(=O)Nc1ccc(F)cc1)c1ccccc1` (stereo partly drawn) [TDH-287, 2-((4-fluorophenyl)amino)-2-oxo-1-phenylethyl 3-amino-6-(1-((3R)-1-((1-(2-((2-(2,6-dioxopiperidin-3-yl)-1,3-dioxoisoindolin-4-yl)oxy)acetyl)piperidin-4-yl)methyl)pyrrolidin-3-yl)-1H-pyrazol-4-yl)pyrazine-2-carboxylate]: the affinity on MLKL [1], expressed as Kd, was 3.7 nM. On MLKL [2], the “Degradation assay (Degradation %) 1 μM” value turned out to be 75.04% and the “Degradation assay (Degradation %) 10 μM” value came to 65.94%. In addition, in the experiment on FADD−/− Jurkat cells, the “Necroptosis inhibition assay (Rescue %) 1 μM” value was determined as 71.05% and the “Necroptosis inhibition assay (Rescue %) 10 μM” value came out at 72.7%.

Molecule `Nc1ncc(-c2ccc(N3CCN(CCOCCOCCNC(=O)CNc4ccc5c(c4)C(=O)N(C4CCC(=O)NC4=O)C5=O)CC3)nc2)nc1C(=O)OC(C(=O)Nc1ccc(F)cc1)c1ccccc1` (stereo not shown) [TDH-260, 2-((4-fluorophenyl)amino)-2-oxo-1-phenylethyl 3-amino-6-(6-(4-(2-(2-(2-(2-((2-(2,6-dioxopiperidin-3-yl)-1,3-dioxoisoindolin-5-yl)amino)acetamido)ethoxy)ethoxy)ethyl)piperazin-1-yl)pyridin-3-yl)pyrazine-2-carboxylate] showed an equilibrium dissociation constant (Kd) on MLKL [1] of 18 nM. In addition, at MLKL [2], the “Degradation assay (Degradation %) 1 μM” value is 38.65% and the “Degradation assay (Degradation %) 10 μM” value is 53.35%. In addition, in the experiment on FADD−/− Jurkat cells, the “Necroptosis inhibition assay (Rescue %) 1 μM” value turned out to be 14.46% and the “Necroptosis inhibition assay (Rescue %) 10 μM” value is listed as 13.52%.

Molecule `Nc1ncc(-c2cnn(C3CCN(CCCN4CCN(C(=O)CNc5ccc6c(c5)C(=O)N(C5CCC(=O)NC5=O)C6=O)CC4)CC3)c2)nc1C(=O)O[C@@H](C(=O)Nc1ccc(F)cc1)c1ccccc1` (stereo partly drawn) [TDH-357, (R)-2-((4-fluorophenyl)amino)-2-oxo-1-phenylethyl 3-amino-6-(1-(1-(3-(4-((2-(2,6-dioxopiperidin-3-yl)-1,3-dioxoisoindolin-5-yl)glycyl)piperazin-1-yl)propyl)piperidin-4-yl)-1H-pyrazol-4-yl)pyrazine-2-carboxylate] showed an equilibrium dissociation constant (Kd) at MLKL [1] of 0.55 nM. Moreover, at MLKL [2], the “Degradation assay (Degradation %) 1 μM” value was 84.79% and the “Degradation assay (Degradation %) 10 μM” value is 76.36%. In the experiment on FADD−/− Jurkat cells (compound 1.1 µM), the “Necroptosis inhibition assay (Rescue %) 1.1 μM” value is on record as 82.13 (1.1µM) %.

At MLKL [1], `Nc1ncc(-c2cnn(C3CCN(CCC4CCN(C(=O)C5CCN(c6cccc7c6C(=O)N(C6CCC(=O)NC6=O)C7=O)CC5)CC4)CC3)c2)nc1C(=O)O[C@@H](C(=O)Nc1ccc(F)cc1)c1ccccc1` (stereo partly drawn) [TDH-196, (R)-2-((4-fluorophenyl)amino)-2-oxo-1-phenylethyl 3-amino-6-(1-(1-(2-(1-(1-(2-(2,6-dioxopiperidin-3-yl)-1,3-dioxoisoindolin-4-yl)piperidine-4-carbonyl)piperidin-4-yl)ethyl)piperidin-4-yl)-1H-pyrazol-4-yl)pyrazine-2-carboxylate] came in with a Kd of 0.97 nM. Also, on MLKL [2], the “Degradation assay (Degradation %) 1 μM” value was found to be 62.01% and the “Degradation assay (Degradation %) 10 μM” value is 51.12%. Also, in the experiment with FADD−/− Jurkat cells, the “Necroptosis inhibition assay (Rescue %) 1 μM” value is recorded as 60.75% and the “Necroptosis inhibition assay (Rescue %) 10 μM” value was 34%.

In turn, `Nc1ncc(-c2cnn(C3CCN(CC4CCN(c5ccc6nnn(C7CCC(=O)NC7=O)c(=O)c6c5)CC4)CC3)c2)nc1C(=O)O[C@@H](C(=O)Nc1ccc(F)cc1)c1ccccc1` (stereo partly drawn) [TDH-172, (R)-2-((4-fluorophenyl)amino)-2-oxo-1-phenylethyl 3-amino-6-(1-(1-((1-(3-(2,6-dioxopiperidin-3-yl)-4-oxo-3,4-dihydrobenzo[d][1,2,3]triazin-6-yl)piperidin-4-yl)methyl)piperidin-4-yl)-1H-pyrazol-4-yl)pyrazine-2-carboxylate] yielded an equilibrium dissociation constant (Kd) at MLKL [1] of 26 nM. Further, on MLKL [2], the “Degradation assay (Degradation %) 1 μM” value is 59.24% and the “Degradation assay (Degradation %) 10 μM” value came out at 57.1%. In the experiment with FADD−/− Jurkat cells, the “Necroptosis inhibition assay (Rescue %) 1 μM” value is 85.53% and the “Necroptosis inhibition assay (Rescue %) 10 μM” value is 74.34%.

Molecule `Nc1ncc(-c2cnn(C3CCN(CCOCCNC(=O)C4CN(c5ccc6c(c5)C(=O)N(C5CCC(=O)NC5=O)C6=O)C4)CC3)c2)nc1C(=O)O[C@@H](C(=O)Nc1ccc(F)cc1)c1ccccc1` (stereo partly drawn) [TDH-127, (R)-2-((4-fluorophenyl)amino)-2-oxo-1-phenylethyl 3-amino-6-(1-(1-(2-(2-(1-(2-(2,6-dioxopiperidin-3-yl)-1,3-dioxoisoindolin-5-yl)azetidine-3-carboxamido)ethoxy)ethyl)piperidin-4-yl)-1H-pyrazol-4-yl)pyrazine-2-carboxylate] displayed an equilibrium dissociation constant (Kd) at MLKL [1] of 5.6 nM. Moreover, at MLKL [2], the “Degradation assay (Degradation %) 1 μM” value is listed as 4.37% and the “Degradation assay (Degradation %) 10 μM” value was found to be 43.64%. For the same molecule, in the experiment with FADD−/− Jurkat cells, the “Necroptosis inhibition assay (Rescue %) 1 μM” value is listed as 34.64% and the “Necroptosis inhibition assay (Rescue %) 10 μM” value came out at 49.65%.

At MLKL [1], `Nc1ncc(-c2cnn(C3CCN(CCCN4CCN(C(=O)COc5ccc6c(c5)C(=O)N(C5CCC(=O)NC5=O)C6=O)CC4)CC3)c2)nc1C(=O)N[C@@H](C(=O)Nc1ccc(F)cc1)c1ccccc1` (stereo partly drawn) [TDH-492, 3-amino-6-(1-(1-(3-(4-(2-((2-(2,6-dioxopiperidin-3-yl)-1,3-dioxoisoindolin-5-yl)oxy)acetyl)piperazin-1-yl)propyl)piperidin-4-yl)-1H-pyrazol-4-yl)-N-((R)-2-((4-fluorophenyl)amino)-2-oxo-1-phenylethyl)pyrazine-2-carboxamide] gave a Kd of 39 nM. At MLKL [2], the “Degradation assay (Degradation %) 1 μM” value came out at 13.74% and the “Degradation assay (Degradation %) 10 μM” value was found to be 14.89%. In the experiment on FADD−/− Jurkat cells (FADD−/− Jurkat cells), the “Necroptosis inhibition assay (Rescue %) 1 μM” value came out at 10.33% and the “Necroptosis inhibition assay (Rescue %) 10 μM” value was 4.12%.

In the case of `Nc1ncc(-c2cnn(C3CCN(CCOC4CCN(C(=O)CNc5cccc6c5C(=O)N(C5CCC(=O)NC5=O)C6=O)CC4)CC3)c2)nc1C(=O)OC(C(=O)Nc1ccc(F)cc1)c1ccccc1` (stereo not shown) [TDH-249, 2-((4-fluorophenyl)amino)-2-oxo-1-phenylethyl 3-amino-6-(1-(1-(2-((1-((2-(2,6-dioxopiperidin-3-yl)-1,3-dioxoisoindolin-4-yl)glycyl)piperidin-4-yl)oxy)ethyl)piperidin-4-yl)-1H-pyrazol-4-yl)pyrazine-2-carboxylate], the dissociation constant Kd on MLKL [1] turned out to be 5.4 nM. On MLKL [2], the “Degradation assay (Degradation %) 1 μM” value came out at 35.81% and the “Degradation assay (Degradation %) 10 μM” value came out at 28.42%. In the experiment with FADD−/− Jurkat cells, the “Necroptosis inhibition assay (Rescue %) 1 μM” value is 45.5% and the “Necroptosis inhibition assay (Rescue %) 10 μM” value was 44.81%.
